Common to all, as to format: cell-based, hepatitis C virus
For assay [1], the system named is genotype 3a (S52) stable HCV replicon in Huh-7-derived cells. The experiment in a line: Stable subgenomic HCV replicon EC50, genotype 3a (Renilla luciferase). The following applies: Hepatitis C virus, 72 h, read-out: EC50 3A RLUC. In general terms: A replicon is a self-replicating genome or part of one, used to study replication in cells.
Assay [2] relates to genotype 1b (Con1) stable HCV replicon in Huh-7-derived cells. As to the kind of experiment: Stable subgenomic HCV replicon EC50, genotype 1b (Renilla luciferase). The following applies: Hepatitis C virus, stable replicon genotype 1b, 72 h, read-out: EC50 1B RLUC. The method in brief: (§1)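 Compounds, three-fold diluted, were applied to Huh-7-derived cells harbouring luciferase replicons (genotype 1a H77, 1b Con1, 2a JFH-1, 4a ED43, with strain-specific adaptive mutations). Seventy-two hours later, intracellular replication was gauged by Renilla luciferase activity and EC50 derived by regression.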

Assay [3] concerns genotype 4a (ED43) stable HCV replicon in Huh-7-derived cells. The experiment in a line: Stable subgenomic HCV replicon EC50, genotype 4a (Renilla luciferase). The following applies: Hepatitis C virus, 72 h, read-out: EC50 4A RLUC. A digest of the protocol: as §1
In assay [4] the test system is genotype 1a NS3/4a protease inhibitor resistant variant R155K transient HCV replicon in Huh-7-derived cells. As to the kind of experiment: Transient-transfected HCV replicon EC50, genotype 1a R155K. The conditions noted are these: Hepatitis C virus, 72 h, read-out: EC50 1A R155K, transient-transfected replicon genotype 1a R155K resistant variant, 72 h.
Assay [5] relates to genotype 3a (S52) wild type transient HCV replicon in Huh-7-derived cells. As to the kind of experiment: Transient-transfected HCV replicon EC50, genotype 3a wild type. The following applies: Hepatitis C virus, 72 h, read-out: EC50 3A WT.
Assay [6] deals with genotype 1b NS3/4a protease inhibitor resistant variant D168A transient HCV replicon in Huh-7-derived cells. The experiment in a line: Transient-transfected HCV replicon EC50, genotype 1b D168A. The conditions noted are these: Hepatitis C virus, 72 h, read-out: EC50 1B D168A, transient-transfected replicon genotype 1b D168A resistant variant, 72 h.
The test system of assay [7] is genotype 1a (H77) stable HCV replicon in Huh-7-derived cells. As to the kind of experiment: Stable subgenomic HCV replicon EC50, genotype 1a (Renilla luciferase). The conditions noted are these: Hepatitis C virus, stable replicon genotype 1a, 72 h, read-out: EC50 1A RLUC. The method in brief: as §1
The test system of assay [8] is genotype 1b (Con1) wild type transient HCV replicon in Huh-7-derived cells. The experiment in a line: Transient-transfected HCV replicon EC50, genotype 1b wild type. The conditions noted are these: Hepatitis C virus, 72 h, read-out: EC50 1B WT.
For assay [9], the system named is genotype 1a (H77) wild type transient HCV replicon in Huh-7-derived cells. As to the kind of experiment: Transient-transfected HCV replicon EC50, genotype 1a wild type. The conditions noted are these: Hepatitis C virus, 72 h, read-out: EC50 1A WT.
Assay [10] deals with genotype 2a (JFH-1) stable HCV replicon in Huh-7-derived cells. As to the kind of experiment: Stable subgenomic HCV replicon EC50, genotype 2a (Renilla luciferase). The conditions noted are these: Hepatitis C virus, stable replicon genotype 2a, 72 h, read-out: EC50 2A RLUC. The method in brief:
as §1

The mark [11] stands for this setting: transient-transfected replicon genotype 3a wild type.
Where [12] appears, read: transient-transfected replicon genotype 1b wild type.
The mark [13] stands for this setting: transient-transfected replicon genotype 1a wild type.

Read-outs that look alike come from different tables or passages of the source.

For orientation: EC50 means the concentration needed to bring the measured effect to its halfway point. `CC[C@@H]1[C@@H]2CN(C(=O)[C@H](C(C)(C)C)NC(=O)O[C@@H]3C[C@H]3CCCCC(F)(F)c3nc4ccccc4nc3O2)[C@@H]1C(=O)N[C@]1(C(=O)NS(=O)(=O)C2CC2)C[C@H]1CC` [Example 54, (1aR,5S,8S,9S,10R,22aR)-5-tert-butyl-N-{(1R,2R)-1-[(cyclopropylsulfonyl)carbamoyl]-2-ethylcyclopropyl}-9-ethyl-18,18-difluoro-3,6-dioxo-1,1a,3,4,5,6,9,10,18,19,20,21,22,22a-tetradecahydro-8H-7,10-methanocyclopropa[18,19][1,10,3,6]dioxadiazacyclononadecino[11,12-b]quinoxaline-8-carboxamide]: the EC50 is 260 nM in assay [1]; 18 nM in [2]; 13 nM in assay [3]; 27 nM in assay [4]; 147 nM in assay [5] (setting [11]); 123 nM in assay [6]. Also, the EC50 in [7] was determined as 33 nM; in assay [8] (setting [12]) it was 10 nM; in assay [9] (setting [13]), 19 nM; in assay [10], 76 nM.
Turning to `COc1ccc2nc3c(nc2c1)O[C@H]1CN(C(=O)[C@H](C(C)(C)C)NC(=O)O[C@@H]2C[C@@H]4C[C@@H]4[C@H]2CCCCC3(F)F)[C@H](C(=O)N[C@]2(C(=O)NS(=O)(=O)C3(C)CC3)C[C@H]2C(F)F)[C@@H]1C` [Example 81, (1aS,2aR,6S,9S,10S,11R,23aR,23bS)-6-tert-butyl-N-[(1R,2R)-2-(difluoromethyl)-1-{[(1-methylcyclopropyl)sulfonyl]carbamoyl}cyclopropyl]-19,19-difluoro-15-methoxy-10-methyl-4,7-dioxo-1a,2,2a,4,5,6,7,10,11,19,20,21,22,23,23a,23b-hexadecahydro-1H,9H-8,11-methanocyclopropa[4′,5′]cyclopenta[1′,2′:18,19][1,10,3,6]dioxadiazacyclononadecino[11,12-b]quinoxaline-9-carboxamide], the EC50 in assay [1] worked out at 12 nM; in assay [2], 3.6 nM; in assay [3], 4.3 nM; in assay [4] it was 2.5 nM; in [5] (setting [11]), 4.3 nM; in assay [6], 2.7 nM. In addition, the EC50 in assay [7] turned out to be 4 nM; in [8] (setting [12]), 2.4 nM; in assay [9] (setting [13]), 3.7 nM; in [10] it was 3.6 nM.
As to `CC[C@@H]1[C@@H]2CN(C(=O)[C@H](C(C)(C)C)NC(=O)O[C@@H]3C[C@H]3CCCCCc3nc4ccc(OC)cc4nc3O2)[C@@H]1C(=O)N[C@]1(C(=O)NS(=O)(=O)C2(C)CC2)C[C@H]1C` [Example 73, (1aR,5S,8S,9S,10R,22aR)-5-tert-butyl-9-ethyl-14-methoxy-N-[(1R,2R)-2-methyl-1-{[(1-methylcyclopropyl)sulfonyl]carbamoyl}cyclopropyl]-3,6-dioxo-1,1a,3,4,5,6,9,10,18,19,20,21,22,22a-tetradecahydro-8H-7,10-methanocyclopropa[18,19][1,10,3,6]dioxadiazacyclononadecino[11,12-b]quinoxaline-8-carboxamide], the EC50 in assay [1] came out at 178 nM; in assay [2], 7.5 nM; in [3], 7.2 nM; in [4], 25 nM; in assay [5] (setting [11]) it was 45 nM; in assay [6] it was 75 nM. Also, the EC50 was 7.9 nM in [7], 6.2 nM in assay [8] (setting [12]), 8.8 nM in [9] (setting [13]) and 22 nM in [10].
With `CC[C@@H]1[C@@H]2CN(C(=O)[C@H](C(C)(C)C)NC(=O)O[C@]3(C)CCC[C@H]3CCCCCc3nc4ccc(OC)cc4nc3O2)[C@@H]1C(=O)N[C@]1(C(=O)NS(=O)(=O)C2(C)CC2)C[C@H]1CC` [Example 56, (3aR,7S,10S,11S,12R,24aR)-7-tert-butyl-11-ethyl-N-[(1R,2R)-2-ethyl-1-{[(1-methylcyclopropyl)sulfonyl]carbamoyl}cyclopropyl]-16-methoxy-3a-methyl-5,8-dioxo-1,2,3,3a,5,6,7,8,11,12,20,21,22,23,24,24a-hexadecahydro-10H-9,12-methanocyclopenta[18,19][1,10,3,6]dioxadiazacyclononadecino[11,12-b]quinoxaline-10-carboxamide], the EC50 was found to be 1030 nM in assay [1]; 37 nM in assay [2]; 57 nM in [3]; 168 nM in assay [4]; 226 nM in assay [5] (setting [11]); 252 nM in assay [6]. Also, the EC50 came out at 41 nM in assay [7], 59 nM in [8] (setting [12]), 63 nM in [9] (setting [13]) and 57 nM in assay [10].
As for `CC[C@@H]1[C@@H]2CN(C(=O)[C@H](C(C)(C)C)NC(=O)O[C@@H]3C[C@H]3CCCCC(F)(F)c3nc4ccccc4nc3O2)[C@@H]1C(=O)N[C@]1(C(=O)NS(=O)(=O)C2CC2)C[C@H]1C(F)F` [Example 53, (1aR,5S,8S,9S,10R,22aR)-5-tert-butyl-N-[(1R,2R)-1-[(cyclopropylsulfonyl)carbamoyl]-2-(difluoromethyl)cyclopropyl]-9-ethyl-18,18-difluoro-3,6-dioxo-1,1a,3,4,5,6,9,10,18,19,20,21,22,22a-tetradecahydro-8H-7,10-methanocyclopropa[18,19][1,10,3,6]dioxadiazacyclononadecino[11,12-b]quinoxaline-8-carboxamide], the EC50 was determined as 18 nM in [1]; 7.7 nM in assay [2]; 2.8 nM in assay [3]; 5.6 nM in assay [4]; 15 nM in assay [5] (setting [11]); 11 nM in assay [6]. In addition, the EC50 is 51 nM in assay [7], 2 nM in assay [8] (setting [12]), 5.3 nM in [9] (setting [13]) and 13 nM in assay [10].
With `CCC[C@@H]1[C@@H]2CN(C(=O)[C@H](C(C)(C)C)NC(=O)O[C@@H]3C[C@H]3CCCCC(F)(F)c3nc4ccc(OC)cc4nc3O2)[C@@H]1C(=O)N[C@]1(C(=O)NS(=O)(=O)C2(C)CC2)C[C@H]1C(F)F` [Example 65, (1aR,5S,8S,9S,10R,22aR)-5-tert-butyl-N-[(1R,2R)-2-(difluoromethyl)-1-{[(1-methylcyclopropyl)sulfonyl]carbamoyl}cyclopropyl]-18,18-difluoro-14-methoxy-3,6-dioxo-9-propyl-1,1a,3,4,5,6,9,10,18,19,20,21,22,22a-tetradecahydro-8H-7,10-methanocyclopropa[18,19][1,10,3,6]dioxadiazacyclononadecino[11,12-b]quinoxaline-8-carboxamide], the EC50 came out at 30 nM in [1]; 8.4 nM in assay [2]; 8.1 nM in assay [3]; 8.1 nM in assay [4]; 17 nM in assay [5]; 11 nM in [6]. Moreover, the EC50 in [7] was 12 nM; in assay [8], 6.4 nM; in assay [9], 9.4 nM; in assay [10] it was 7.7 nM.
Take `CC[C@@H]1[C@@H]2CN(C(=O)[C@H](C(C)(C)C)NC(=O)O[C@@H]3C[C@H]3CCCCCc3nc4ccc(OC)cc4nc3O2)[C@@H]1C(=O)N[C@]1(C(=O)NS(=O)(=O)C2(F)CC2)C[C@H]1C(F)F` [Example 74, (1aR,5S,8S,9S,10R,22aR)-5-tert-butyl-N-[(1R,2R)-2-(difluoromethyl)-1-{[(1-fluorocyclopropyl)sulfonyl]carbamoyl}cyclopropyl]-9-ethyl-14-methoxy-3,6-dioxo-1,1a,3,4,5,6,9,10,18,19,20,21,22,22a-tetradecahydro-8H-7,10-methanocyclopropa[18,19][1,10,3,6]dioxadiazacyclononadecino[11,12-b]quinoxaline-8-carboxamide]: the EC50 in assay [1] turned out to be 374 nM; in assay [2] it was 5 nM; in assay [3], 8.3 nM; in assay [4], 44 nM; in [5] (setting [11]) it was 138 nM; in [6], 56 nM. Further, the EC50 amounted to 8 nM in assay [7], 2.1 nM in assay [8] (setting [12]), 8.8 nM in assay [9] (setting [13]) and 18 nM in assay [10].

These data come from patent US10335409B2 (priority 2012, dated 2019).
